Reference: US20230312587A1, “PTERIDINONE COMPOUNDS AND USES THEREOF” (Vertex Pharmaceutical Incorporated, priority 2018, published 2023)

Tests used:
Assay type in all cases: cell-based
Colo-205 cells = experiment: Calcium flux assay (FLIPR Calcium 5); settings: Homo sapiens, COLO 205, 0.6 h, FLIPR Calcium 5, measured over 36 minutes
Procedure: Compounds described herein induced ER stress by causing intracellular calcium flux. Calcium flux was measured in Colo-205 cells using the FLTPR® Calcium 5 Assay Kit according to manufacter's protocol (Molecular Devices, Cat. #R8186) on a FLIPR3 system (Molecular Devices). Calcium flux is measured over 36 minutes. The Colo-205 calcium flux assay data are summarized in Table 47: A<0.6 μM; 0.6 μM≤B<2.0 μM; 2.0 μM≤C<10.0 μM; D≥10.0 μM.

HepG2 parental = experiment: In vitro cell viability (CellTiter-Glo), HepG2 parental; settings: Homo sapiens, 96 hours, read-out: HepG2 viability
Procedure: (§1) HEK293 cells containing empty pCLPCx vector (HEK293 empty), HEK293 cells stably over-expression WFS1 (HEK293 WFS1), HepG2, and HepG2 cells where WFS1 was depleted via CRISPR/Cas9 (HepG2 WFS1 KO) cells were plated into 96-well black plates (Corning, product #3904) in 100 microliters of complete DMEM cell culture media [DMEM (Life Technologies, product #11960-051) media supplemented with 10% FBS (Hyclone, catalog #SH30071.03), antimycotic/antibiotic (Life Technologies, product #15240-062), and Glutamax (Life Technologies, product #35050-061)] at 1,000 (HEK293) or 5,000 (HepG2) cells per well. Cells were allowed to attach and grow overnight, after which compounds are added at various concentrations. Cell viability was assessed 96 hrs after compound addition with CellTiter-Glo reagent (Promega, catalog #G7570) according to manufacturer's protocol and measurement on a Pherastar luminescence plate reader (BMG Labtech).
To determine the effect of WFS1 depletion on compound mediated inhibition of cell viability, parental HepG2 cells and HepG2 cells where WFS1 was deleted by CRISPR/Cas9 were exposed to increasing concentrations of either Compound 136 or Compound 253 for 96 hours after which time viability was determined using Cell Titer Glo reagent (Promega). […] The IC50s for the viability of both the HepG2 parental and WFS1 knockout cells are summarized in Table 47: A<0.5 μM; 0.5 μM≤<2.0 μM; 2.0 μM≤C<10.0 μM; D≥[…].

[1] = tested on: Hek293 WFS1 over-expressor; experiment: In vitro cell viability (CellTiter-Glo), Hek293 WFS1 over-expressor; settings: Homo sapiens, HEK293, Hek293 WFS1 over-expressing cells; read-out: Hek293 WFS1 viability
Procedure: WFS1 cDNA is amplified from clone RC202901 (Origene Technologies) with primers 5′-TCCGCGGCCCCAAGCTTATCGCCATGGACTCCAACACTGC-3′ (SEQ ID NO: 1), 5′-GATGGGCCCAGATCTCGAGTCAGGCCGCCGACAGGAATG-3′ (SEQ ID NO: 2) and cloned into a retroviral mammalian expression vector pCLPCX using HD Infusion (CLONTECH) at Hind3-Xhol sites using standard procedures. The resulting clone is identified as pCLPCX_WFS1.
HEK293 (ATCC, catalog #CRL-1573) cells are plated in 10 cm dishes (Corning, product #430167) into 10 mL of complete DMEM cell culture media [DMEM (Life Technologies, product #11960-051) media supplemented with 10% FBS (Hyclone, catalog #SH30071.03), antimycotic/antibiotic (Life Technologies, product #15240-062), and Glutamax (Life Technologies, product #35050-061)] at 3×10^6 cells per dish. Cells are allowed to attach and grow overnight at 37° C. in humidified 5% CO2. Cells are co-transfected with pVSV-G, pCMV-Gag/Pol and pCLPCX_WFS1 using Fugene 6 (Promega, catalog #E2691) according to manufacturer's protocol. Separately, cells are co-transfected with pVSV-G, pCMV-Gag/Pol and pCLPCX to produce control retrovirus. Cell culture media containing retrovirus (viral supernatant) is collected at 48 and 72 hours following transfection, filtered through a 0.4 uM filter, and stored at −80° C.
HEK293 cells are plated in 6 well plates (Corning, product #3516) in 2 mL of complete DMEM cell culture media at 1×10^5 cells well and allowed to attach and grow overnight at 37° C. in humidified 5% CO2. The following day, the media is replaced with viral supernatant to which 10 ug/ml of Polybrene® (Santa Cruz Biotech, catalog #sc-134220) is added. Viral supernatant is replaced 24 hours later with complete DMEM media. Transduced cells are selected in complete DMEM cell culture media containing 1 microgram/mL of puromycin (Life Technologies, catalog #A1113803).
as §1
The IC50s for the viability of both the Hek293 empty vector and WFS1 over-expressing cells are summarized in Table 47: A<0.06 μM; 0.06 μM≤B<0.6 μM; 0.6 μM≤C<3.0 μM; D≥3.0 μM.

EC50 (Colo-205 cells) [nM]	Structure (SMILES)	IC50 (HepG2 parental) [nM]	IC50 [1] [nM]
600 to 2000	CC[C@H]1C(=O)Nc2cnc(NCc3cnn(Cc4ccc(C(F)(F)F)nc4)c3)nc2N1C [Compound 427, (7S)-7-ethyl-8-methyl-2-(((1-((6-(trifluoromethyl)pyridin-3-yl)methyl)-1H-pyrazol-4-yl)methyl)amino)-7,8-dihydropteridin-6(5H)-one]	≥ 10000	60 to 600
2000 to 10000	Cc1nc(NCc2cnn(Cc3ccc(C(F)(F)F)nc3C(C)O)c2)nc2c1NC(=O)[C@H](C)N2C (stereo partly drawn) [Compound 419, (7S)-2-(((1-((2-((S)-1-hydroxyethyl)-6-(trifluoromethyl)pyridin-3-yl)methyl)-1H-pyrazol-4-yl)methyl)amino)-4,7,8-trimethyl-7,8-dihydropteridin-6(5H)-one]	2000 to 10000	60 to 600
600 to 2000	Cc1cc(F)ncc1Cn1cc(CNc2nc(C)c3c(n2)N(C)[C@@H](C(C)C)C(=O)N3)cn1 [Compound 423, (7S)-2-(((1-((6-fluoro-4-methylpyridin-3-yl)methyl)-1H-pyrazol-4-yl)methyl)amino)-7-isopropyl-4,8-dimethyl-7,8-dihydropteridin-6(5H)-one]	< 500	< 60
600 to 2000	Cc1nc(NCc2cnn(Cc3cc(C(F)(F)F)nn3C)c2)nc2c1NC(=O)[C@H](C1CC1)N2C [Compound 396, (7S)-7-Cyclopropyl-4,8-dimethyl-2-(((1-((1-methyl-3-(trifluoromethyl)-1H-pyrazol-5-yl)methyl)-1H-pyrazol-4-yl)methyl)amino)-7,8-dihydropteridin-6(5H)-one]		< 60
600 to 2000	Cc1nc(NCc2cnn(Cc3ccc(C(F)(F)F)nc3)c2)nc2c1NC(=O)[C@H](C)N2C(C)C [Compound 385, (7S)-8-isopropyl-4,7-dimethyl-2-(((1-((6-(trifluoromethyl)pyridin-3-yl)methyl)-1H-pyrazol-4-yl)methyl)amino)-7,8-dihydropteridin-6(5H)-one]		< 60
< 600	Cc1nc(NCc2cnn(Cc3ccc(C(F)(F)F)nc3C(C)C)c2)nc2c1NC(=O)[C@H](C)N2C [Compound 388, (7S)-2-(((1-((2-isopropyl-6-(trifluoromethyl)pyridin-3-yl)methyl)-1H-pyrazol-4-yl)methyl)amino)-4,7,8-trimethyl-7,8-dihydropteridin-6(5H)-one]		< 60

Second part, the compound before the results:

Structure (SMILES)	EC50 (Colo-205 cells) [nM]	IC50 (HepG2 parental) [nM]	IC50 [1] [nM]
Cc1nc(NCc2cnn(CC3CCC3)c2)nc2c1N(C)C(=O)[C@H](C)N2C [Compound 7, (7S)-2-(((1-(cyclobutylmethyl)-1H-pyrazol-4-yl)methyl)amino)-4,5,7,8-tetramethyl-7,8-dihydropteridin-6(5H)-one]	600 to 2000	2000 to 10000	60 to 600
Cc1nc(N[C@H]2C[C@@H](Oc3cc(F)c(F)c(F)c3)C2)nc2c1NC(=O)[C@H](C)N2C [Compound 247, (7S)-4,7,8-trimethyl-2-((cis-3-(3,4,5-trifluorophenoxy)cyclobutyl)amino)-7,8-dihydropteridin-6(5H)-one]	2000 to 10000	2000 to 10000	≥ 3000
CN1C(=O)C(C)(C)N(C)c2nc(NCc3cnn(Cc4cccnc4C(F)(F)F)c3)ncc21 [Compound 237, 5,7,7,8-Tetramethyl-2-(((1-((2-(trifluoromethyl)pyridin-3-yl)methyl)-1H-pyrazol-4-yl)methyl)amino)-7,8-dihydropteridin-6(5H)-one]	600 to 2000	≥ 10000	60 to 600
Cc1nc(NCc2cnn(Cc3ccc(F)cc3)c2)nc2c1NC(=O)[C@H](C)N2C [Compound 4, (7S)-2-(((1-(4-fluorobenzyl)-1H-pyrazol-4-yl)methyl)amino)-4,7,8-trimethyl-7,8-dihydropteridin-6(5H)-one]	< 600	2000 to 10000	< 60
Cc1nc(N[C@H]2CC[C@H](n3ccc(C(F)(F)F)n3)C2)nc2c1NC(=O)[C@H](C)N2C (single isomer, unassigned) [Compound 310]	2000 to 10000	≥ 10000	60 to 600
Cc1ncc(Cn2cc(CNc3nc(C)c4c(n3)N(C)[C@@H](C)C(=O)N4)cn2)cn1 [Compound 163, (7S)-4,7,8-trimethyl-2-(((1-((2-methylpyrimidin-5-yl)methyl)-1H-pyrazol-4-yl)methyl)amino)-7,8-dihydropteridin-6(5H)-one]	2000 to 10000	≥ 10000	≥ 3000
Cc1nc(NCc2cnn(C[C@H](C)c3ccc(F)cc3)c2)nc2c1NC(=O)[C@H](C)N2C [Compound 96, (7S)-2-(((1-((R)-2-(4-fluorophenyl)propyl)-1H-pyrazol-4-yl)methyl)amino)-4,7,8-trimethyl-7,8-dihydropteridin-6(5H)-one]	< 600	2000 to 10000	60 to 600
Cc1nc(NCc2cnn([C@@H]3CCN(c4ccc(F)cc4)C3)c2)nc2c1NC(=O)[C@H](C)N2C [Compound 170, (7S)-2-(((1-((R)-1-(4-fluorophenyl)pyrrolidin-3-yl)-1H-pyrazol-4-yl)methyl)amino)-4,7,8-trimethyl-7,8-dihydropteridin-6(5H)-one]	< 600	< 500	< 60
Cc1nc(NCc2cnn([C@@H](C)c3ccc(C(F)(F)F)nc3)c2)nc2c1NC(=O)[C@H](C)N2C [Compound 174, (7S)-4,7,8-Trimethyl-2-(((1-((S)-1-(6-(trifluoromethyl)pyridin-3-yl)ethyl)-1H-pyrazol-4-yl)methyl)amino)-7,8-dihydropteridin-6(5H)-one]	600 to 2000		< 60
Cc1ccc(Cn2cc(CNc3nc(C)c4c(n3)N(C)[C@@H](C)C(=O)N4)cn2)cn1 [Compound 173, (7S)-4,7,8-trimethyl-2-(((1-((6-methylpyridin-3-yl)methyl)-1H-pyrazol-4-yl)methyl)amino)-7,8-dihydropteridin-6(5H)-one]	2000 to 10000		60 to 600
Cc1nc(NCc2cnn(Cc3ccc(F)nc3)c2)nc2c1NC(=O)[C@H](C)N2C [Compound 77]	600 to 2000		60 to 600
Cc1nc(NCc2cnn(Cc3ccnc(C(F)(F)F)c3)c2)nc2c1NC(=O)[C@H](C)N2C [Compound 207, (7S)-4,7,8-trimethyl-2-(((1-((2-(trifluoromethyl)pyridin-4-yl)methyl)-1H-pyrazol-4-yl)methyl)amino)-7,8-dihydropteridin-6(5H)-one]	600 to 2000		< 60
